# Results from patent publication US20260248812A1, “METHODS OF TREATING CONGENITAL ADRENAL HYPERPLASIA” (Spruce Biosciences, Inc., priority 2019, published 2026).
# Columns and labels:
# adults with classic CAH = test: Phase 2 clinical study of Compound 3 with glucocorticoid: time matched change of serial hormone profiles (ACTH, 17-OHP, A4); assay type: in vivo, human; details: non-dexamethasone subjects; for A4 level profile, time matched change from baseline: 6 am to 8 am
# Experimental: Study Compound 3, a Phase 2, open-label, first-in-CAH-patients, proof-of-concept, dose ranging study, evaluated the safety and efficacy of repeated doses of SPR001 in adults with classic CAH. The population (n=24; with 2 subjects completing 2 cohorts) consisted of subjects with classic CAH that is not adequately controlled despite a stable glucocorticoid regimen based on the assessment of a single hormone at study screening, 17-OHP>800 ng/dl, which is 4 times the upper limit of a normal reference range of 17-OHP level. 17-OHP was chosen as the hormone as an inclusion criterion, as at the time, it represented the state-of-art in CAH for assessment of disease severity and adequacy of glucocorticoid therapy. The study comprised 3 cohorts, Cohort A was a 6-week intra-subject dose escalation treatment period with three 2-week treatment periods of 200 mg […] (QD) (only daily), 600 mg QD and 1000 mg QD without washout between treatment periods. Cohorts B and C consisted of 2-week treatment periods of either 100 bis in die (BID) (twice daily) (Cohort C) or 200 mg BID (Cohort B). At baseline, the following hormones were assessed, 17-OHP, ACTH and A4. The same hormones were assessed at the end of each 2-week treatment period.
# A clinical study is conducted involving up to 52 weeks treatment of Compound 3 with concurrent daily glucocorticoid therapy for the treatment of adults with classic CAH. After screening using A4 and ACTH level criteria, eligible patients are enrolled into up to 12 weeks of placebo-controlled treatment followed by 40 weeks of open label treatment and a 4-week washout/safety follow-up period.
# (§1) As part of the study, pre and pose concentrations of DEX and cortisol were measured. In some embodiments, the biomarker reduction analysis comprises all subjects.
# (§2) A pooled baseline (dotted) and 2 lines (solid) representing two dose groups (doses=200 mg and doses >200 mg) using the percentage change from dose group baseline presented as percentage change from the pooled baseline. The figures are divided by disease control group, poor disease control with highly elevated ACTH and A4 and the good disease control group with ACTH and A4 that is near normal or below normal ranges. Each group has elevated 17-OHP.
# as §2, with “In both groups, 17-OHP is elevated above its target (1200 ng/dL). The Y-axis is different with the poor disease control” for “Each”, “exceeding 8000 ng/dL in FIG. 3A and the good disease group was near an upper bound of approximately 3000 ng/dL in FIG. 3B.” for “has elevated 17-OHP.”
# CYP3A4 pathway = CYP3A4 pathway (Homo sapiens, UniProt P08684); test: CYP3A4 pathway inhibition (statement); assay type: in vitro ADME; details: dexamethasone is primarily metabolized through the CYP3A4 pathway
# Experimental: as §1
# Sequence of CYP3A4 pathway (P08684 whole entry): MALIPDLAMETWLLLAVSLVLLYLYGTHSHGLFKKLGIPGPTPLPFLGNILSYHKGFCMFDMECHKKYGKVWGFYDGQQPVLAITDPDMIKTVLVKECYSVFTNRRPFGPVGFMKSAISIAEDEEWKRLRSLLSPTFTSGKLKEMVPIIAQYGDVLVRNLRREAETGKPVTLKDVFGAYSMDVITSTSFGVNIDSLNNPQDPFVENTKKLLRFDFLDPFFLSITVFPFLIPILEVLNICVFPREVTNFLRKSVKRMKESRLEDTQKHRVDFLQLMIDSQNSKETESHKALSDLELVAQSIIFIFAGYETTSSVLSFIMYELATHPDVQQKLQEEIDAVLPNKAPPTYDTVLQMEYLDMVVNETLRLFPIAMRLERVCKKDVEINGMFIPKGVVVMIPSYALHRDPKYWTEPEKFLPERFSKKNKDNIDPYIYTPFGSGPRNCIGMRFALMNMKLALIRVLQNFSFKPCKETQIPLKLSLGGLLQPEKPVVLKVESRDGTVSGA
structure (smiles),measurement,setting,value
"CCC(CC)c1cc(C)nc2c(-c3sc(N4CCOCC4)nc3Cl)c(C)nn12 [Compound 3, 4-(4-chloro-5-(2,5-dimethyl-7-(pentan-3-yl)pyrazolo[1,5-a]pyrimidin-3-yl)thiazol-2-yl)morpholine]","17-OHP level, serial hormone profile, time matched change from baseline","adults with classic CAH; both poor and good disease control groups, 10 pm to 8 am, FIGS. 3A and 3B",reduced the magnitude of the increase in 17-OHP post 3 am
same,"ACTH level, serial hormone profile, time matched change from baseline","adults with classic CAH; good disease control group (ACTH and A4 near or below normal), 10 pm to 8 am, FIG. 2B",generally maintained the serial profile below the ULN
same,"A4 level profile, time matched change from baseline","adults with classic CAH; good disease control group, FIG. 4B",further reduce A4 level compared to the baseline level
same,"ACTH level, serial hormone profile, time matched change from baseline","adults with classic CAH; poor disease control group (highly elevated ACTH and A4), 10 pm to 8 am, doses =200 mg and >200 mg, FIG. 2A",reduced the magnitude of the increase in ACTH post 3 am
same,"A4 level profile, time matched change from baseline","adults with classic CAH; poor disease control group, blended gender based ULN approximately 212 ng/dL, FIG. 4A",improves the A4 profile in subjects toward the blended gender based ULN
same,inhibition of the CYP3A4 pathway,CYP3A4 pathway,inhibitor of the CYP3A4 pathway
